Laboratory results: patent US8153663B2, “3-amino-indazole or 3-amino-4,5,6,7-tetrahydro-indazole derivatives” (Hoffmann-La Roche Inc., priority 2008, dated 2012)

target: T1, FXR ligand binding domain (GST-FXR LBD fusion protein, human FXR aa 193-473) (Homo sapiens, UniProt Q96RI1); assay: Radioligand binding assay (radioligand displacement, scintillation proximity); conditions: 40 nM GST-FXR LBD on SPA beads, radioligand 2,N-dicyclohexyl-2-[2-(2,4 dimethoxy-phenyl)-benzoimidazol-1-yl]-acetamide, RT 30 minutes
T1 construct: made in house; host or cells: E. coli BL21(pLysS)
T1 sequence (Q96RI1 193-472 isoform Q96RI1-2 limits assumed): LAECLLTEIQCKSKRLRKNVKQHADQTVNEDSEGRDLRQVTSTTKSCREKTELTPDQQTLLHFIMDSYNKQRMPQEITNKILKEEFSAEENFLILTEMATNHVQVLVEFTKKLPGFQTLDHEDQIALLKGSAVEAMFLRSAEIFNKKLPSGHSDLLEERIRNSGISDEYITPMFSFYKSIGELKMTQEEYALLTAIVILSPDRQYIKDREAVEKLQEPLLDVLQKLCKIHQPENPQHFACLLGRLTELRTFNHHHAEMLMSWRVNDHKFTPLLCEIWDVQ
Experimental: The following tests were carried out in order to determine the activity of the compounds of formula I. Background information on the binding assay can be found in: Nichols J S et al. “Development of a scintillation proximity assay for peroxisome proliferator-activated receptor gamma ligand binding domain”, (1998) Anal. Biochem. 257: 112-119.
Bacterial and mammalian expression vectors were constructed to produce glutathione-s-transferase (GST) and Gal4 DNA binding domain (GAL) proteins fused to the ligand binding domain (LBD) of human FXR (aa 193-473). To accomplish this, the portions of the sequences encoding the FXR LBD were amplified by polymerase chain reaction (PCR) from a full-length clone by PCR and then subcloned into the plasmid vectors. The final clone was verified by DNA sequence analysis.
The induction, expression, and subsequent purification of GST-LBD fusion protein was performed in E. coli strain BL21(pLysS) cells by standard methods (Current Protocols in Molecular Biology, Wiley Press, ed. Ausubel et al).
Radioligand Binding Assay
Binding of test substances to the FXR ligand binding domain was assessed in a radioligand displacement assay. The assay was performed in a buffer consisting of 50 mM Hepes, pH 7.4, 10 mM NaCl, 5 mM MgCl2. For each reaction well in a 96-well plate, 40 nM of GST-FXR LBD fusion protein was bound to 10 μg glutathione ytrium silicate SPA beads (Pharmacia Amersham) in a final volume of 50 μl by shaking. A radioligand (e.g. 40 nM) of 2,N-dicyclohexyl-2-[2-(2,4 dimethoxy-phenyl)-benzoimidazol-1-yl]-acetamide) was added, and the reaction incubated at RT for 30 minutes in the presence of test compounds followed by scintillation proximity counting. All binding assays were performed in 96-well plates and the amount of bound ligand was measured on a Packard TopCount using OptiPlates (Packard). Dose response curves were performed within a range of concentration from 6×10^−9 M to 2.5×10^−5 M.

Row | SMILES | IC50
1 | COCCN(C(=O)NC1CCCCC1)c1c2ccccc2nn1-c1ccc(Cl)cc1 [Example 17, 1-[2-(4-Chloro-phenyl)-2H-indazol-3-yl]-3-cyclohexyl-1-(2-methoxy-ethyl)-urea] | 2330 nM
2 | CCCCN(C(=O)Nc1ccc(C(=O)O)cc1Cl)c1c2ccccc2nn1-c1ccc(Cl)cc1 [Example 12, 4-{3-Butyl-3-[2-(4-chloro-phenyl)-2H-indazol-3-yl]-ureido}-3-chloro-benzoic acid] | 790 nM
3 | O=C(O)CCc1ccc(NC(=O)N(c2c3ccccc3nn2-c2ccc(Cl)cc2)C2CCCCC2)c(F)c1 [Example 26, 3-(4-{3-[2-(4-Chloro-phenyl)-2H-indazol-3-yl]-3-cyclohexyl-ureido}-3-fluoro-phenyl)-propionic acid] | 340 nM
4 | CCCCN(C(=O)NC1CCCCC1)c1c2ccccc2nn1-c1ccc(Cl)cc1 [Example 4, 1-Butyl-1-[2-(4-chloro-phenyl)-2H-indazol-3-yl]-3-cyclohexyl-urea] | 180 nM
5 | O=C(O)Cc1ccc(NC(=O)N(c2c3ccccc3nn2-c2ccc(Cl)cc2)C2CCCCC2)c(Cl)c1 [Example 21, (3-Chloro-4-{3-[2-(4-chloro-phenyl)-2H-indazol-3-yl]-3-cyclohexyl-ureido}-phenyl)-acetic acid] | 720 nM
6 | O=C(NC1CCCCC1)N(c1ccccc1)c1c2ccccc2nn1-c1ccc(Cl)cc1 [Example 15, 1-[2-(4-Chloro-phenyl)-2H-indazol-3-yl]-3-cyclohexyl-1-phenyl-urea] | 460 nM
7 | CC(C)(C(=O)O)c1ccc(NC(=O)N(c2c3ccccc3nn2-c2ccc(Cl)cc2)C2CCCCC2)c(F)c1 [Example 32, 2-(4-{3-[2-(4-Chloro-phenyl)-2H-indazol-3-yl]-3-cyclohexyl-ureido}-3-fluoro-phenyl)-2-methyl-propionic acid] | 3350 nM
8 | CCOc1cccc(N(C(=O)NC2CCCCC2)c2c3ccccc3nn2-c2ccc(Cl)cc2)c1 [Example 25, 1-[2-(4-Chloro-phenyl)-2H-indazol-3-yl]-3-cyclohexyl-1-(3-ethoxy-phenyl)-urea] | 790 nM
9 | O=C(Nc1ccccc1F)N(c1c2ccccc2nn1-c1ccccc1)C1CCCCC1 [Example 3, 1-Cyclohexyl-3-(2-fluoro-phenyl)-1-(2-phenyl-2H-indazol-3-yl)-urea] | 830 nM
10 | O=C(O)c1ccc(NC(=O)N(c2c3cc(F)c(F)cc3nn2-c2ccc(Cl)cc2)C2CCCCC2)c(Cl)c1 [Example 16, 3-Chloro-4-{3-[2-(4-chloro-phenyl)-5,6-difluoro-2H-indazol-3-yl]-3-cyclohexyl-ureido}-benzoic acid] | 400 nM
11 | O=C(O)c1ccc(NC(=O)N(Cc2ccccc2)c2c3ccccc3nn2-c2ccc(Cl)cc2)c(Cl)c1 [Example 9, 4-{3-Benzyl-3-[2-(4-chloro-phenyl)-2H-indazol-3-yl]-ureido}-3-chloro-benzoic acid] | 1080 nM
12 | O=C(NC1CCCCC1)N(c1cccc(Cl)c1)c1c2ccccc2nn1-c1ccc(Cl)cc1 [Example 19, 1-(3-Chloro-phenyl)-1-[2-(4-chloro-phenyl)-2H-indazol-3-yl]-3-cyclohexyl-urea] | 20 nM
13 | O=C(NC1CCCCC1)N(c1c2ccccc2nn1-c1ccc(Cl)cc1)C1CCOCC1 [Example 10, 1-[2-(4-Chloro-phenyl)-2H-indazol-3-yl]-3-cyclohexyl-1-(tetrahydro-pyran-4-yl)-urea] | 660 nM
14 | O=C(NC1CCCCC1)N(c1c2ccccc2nn1-c1ccc(Cl)cc1)C1CCCCC1 [Example 11, 1-[2-(4-Chloro-phenyl)-2H-indazol-3-yl]-1,3-dicyclohexyl-urea] | 20 nM
15 | O=C(O)c1ccc(NC(=O)N(c2c3ccccc3nn2-c2ccc(Cl)cc2)C2CCC2)c(Cl)c1 [Example 31, 3-Chloro-4-{3-[2-(4-chloro-phenyl)-2H-indazol-3-yl]-3-cyclobutyl-ureido}-benzoic acid] | 4310 nM
16 | O=C(NC1CCCCC1)N(c1c2ccccc2nn1-c1ccccc1)C1CCCCC1 [Example 1, 1,3-Dicyclohexyl-1-(2-phenyl-2H-indazol-3-yl)-urea] | 40 nM
17 | O=C(NC1CCCCC1)N(c1ccc(F)c(Cl)c1)c1c2ccccc2nn1-c1ccc(Cl)cc1 [Example 28, 1-(3-Chloro-4-fluoro-phenyl)-1-[2-(4-chloro-phenyl)-2H-indazol-3-yl]-3-cyclohexyl-urea] | 70 nM

Other lines, results leading:

Row | IC50 | SMILES
18 | 20 nM | O=C(NC1CCCCC1)N(c1c2ccc(F)cc2nn1-c1ccc(Cl)cc1)C1CCCCC1 [Example 40, 1-[2-(4-Chloro-phenyl)-6-fluoro-2H-indazol-3-yl]-1,3-dicyclohexyl-urea]
19 | 300 nM | O=C(N[C@H]1CC[C@H](O)CC1)N(c1cccc(Cl)c1)c1c2ccccc2nn1-c1ccc(Cl)cc1 [Example 41, trans-1-(3-Chloro-phenyl)-1-[2-(4-chloro-phenyl)-2H-indazol-3-yl]-3-(4-hydroxy-cyclohexyl)-urea]
20 | 240 nM | O=C(NC1CCCC1)N(c1c2ccccc2nn1-c1ccc(Cl)cc1)C1CCCC1 [Example 38, 1-[2-(4-Chloro-phenyl)-2H-indazol-3-yl]-1,3-dicyclopentyl-urea]
21 | 60 nM | O=C(OC1CCCCC1)N(c1c2ccccc2nn1-c1ccc(Cl)cc1)C1CCCCC1 [Example 37, [2-(4-Chloro-phenyl)-2H-indazol-3-yl]-cyclohexyl-carbamic acid cyclohexyl ester]
22 | 20 nM | O=C(NC1CCCCC1)N(c1cccc(Cl)c1)c1c2ccc(F)cc2nn1-c1cccc(Cl)c1 [Example 35, 1-(3-Chloro-phenyl)-1-[2-(3-chloro-phenyl)-6-fluoro-2H-indazol-3-yl]-3-cyclohexyl-urea]
23 | 80 nM | O=C(NC1CCCCC1)N(c1cccc(Cl)c1)c1c2cc(F)c(F)cc2nn1-c1cccc(Cl)c1 [Example 43, 1-(3-Chloro-phenyl)-1-[2-(3-chloro-phenyl)-5,6-difluoro-2H-indazol-3-yl]-3-cyclohexyl-urea]
24 | 100 nM | O=C(NC1CCCCC1)N(c1cccc(Cl)c1)c1c2ccc(F)cc2nn1-c1ccc(Cl)cc1 [Example 44, 1-(3-Chloro-phenyl)-1-[2-(4-chloro-phenyl)-6-fluoro-2H-indazol-3-yl]-3-cyclohexyl-urea]
